Laboratory results taken from PMC467104, “Novel NO-TZDs and trimethoxychalcone-based DHPMs: design, synthesis, and biological evaluation as potential VEGFR-2 inhibitors” (Journal of Enzyme Inhibition and Medicinal Chemistry, 2024).

Target: T1, VEGFR-2 (Homo sapiens, UniProt P35968)
T1 construct: gene KDR
Assay: BPS Bioscience KDR kinase assay (Kinase-Glo Max/ADP-Glo luminescence)
Type: biochemical

T1 sequence (P35968 20-1356): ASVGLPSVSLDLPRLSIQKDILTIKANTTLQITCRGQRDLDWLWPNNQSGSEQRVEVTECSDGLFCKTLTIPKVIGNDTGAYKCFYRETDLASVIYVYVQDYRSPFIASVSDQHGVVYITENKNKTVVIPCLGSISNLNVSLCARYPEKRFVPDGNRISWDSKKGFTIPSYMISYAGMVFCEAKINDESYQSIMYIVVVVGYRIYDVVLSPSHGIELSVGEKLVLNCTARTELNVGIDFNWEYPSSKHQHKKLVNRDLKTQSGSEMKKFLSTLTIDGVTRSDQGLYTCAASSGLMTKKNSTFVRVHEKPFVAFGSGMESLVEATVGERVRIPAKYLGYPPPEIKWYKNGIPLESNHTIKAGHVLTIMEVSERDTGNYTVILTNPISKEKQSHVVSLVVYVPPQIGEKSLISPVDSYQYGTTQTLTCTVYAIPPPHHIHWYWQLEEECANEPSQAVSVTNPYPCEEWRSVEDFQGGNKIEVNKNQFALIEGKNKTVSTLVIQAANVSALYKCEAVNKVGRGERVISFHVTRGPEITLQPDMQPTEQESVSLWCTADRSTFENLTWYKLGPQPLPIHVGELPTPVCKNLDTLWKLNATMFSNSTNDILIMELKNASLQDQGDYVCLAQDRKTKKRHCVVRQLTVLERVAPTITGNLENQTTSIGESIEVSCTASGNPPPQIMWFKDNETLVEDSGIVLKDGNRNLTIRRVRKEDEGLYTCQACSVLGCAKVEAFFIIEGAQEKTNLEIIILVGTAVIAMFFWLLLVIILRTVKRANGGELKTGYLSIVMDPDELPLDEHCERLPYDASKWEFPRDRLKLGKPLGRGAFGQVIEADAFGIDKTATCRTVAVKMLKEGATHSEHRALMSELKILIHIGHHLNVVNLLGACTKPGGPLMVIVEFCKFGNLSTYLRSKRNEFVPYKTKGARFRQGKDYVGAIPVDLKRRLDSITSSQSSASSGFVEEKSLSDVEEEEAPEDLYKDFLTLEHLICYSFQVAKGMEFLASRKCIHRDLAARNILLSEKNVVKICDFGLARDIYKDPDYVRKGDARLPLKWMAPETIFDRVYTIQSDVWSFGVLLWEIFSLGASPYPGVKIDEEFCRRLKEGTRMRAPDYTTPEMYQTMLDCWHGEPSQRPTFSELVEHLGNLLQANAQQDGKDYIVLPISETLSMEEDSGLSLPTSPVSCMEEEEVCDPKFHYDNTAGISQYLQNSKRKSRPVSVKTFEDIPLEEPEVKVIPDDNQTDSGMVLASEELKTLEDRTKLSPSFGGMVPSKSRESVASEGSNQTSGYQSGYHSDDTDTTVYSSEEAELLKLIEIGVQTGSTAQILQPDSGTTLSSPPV

Compound `CCOC(=O)C1=C(C)NC(SCC(=O)Nc2ccc(C(=O)/C=C/c3cc(OC)c(OC)c(OC)c3)cc2)=N[C@@H]1c1ccc(O)c(OC)c1` [CDHPM-10e, Ethyl (R,E)-4–(4-hydroxy-3-methoxyphenyl)-6-methyl-2-((2-oxo-2-((4–(3-(3,4,5-trimethoxyphenyl)acryloyl)phenyl)amino)ethyl)thio)-1,4-dihydropyrimidine-5-carboxylate] has an IC50 of 112 nM.
